From patent publication US4448777A, “1-Phenylindazole-3-one compounds, process and intermediates for their preparation, and pharmaceutical compositions containing same” (Kali-Chemie Pharma GmbH, priority 1981, dated 1984)

System: passive cutaneous anaphylaxis (PCA)
Assay: Inhibition of passive cutaneous anaphylaxis (PCA test) in rats
Type: in vivo
Conditions: 10 minutes before intraperitoneal ovoalbumin and Evans blue, blue spot diameter after 30 minutes; for ED50: Rattus norvegicus, po, read-out: P.C.A. Inhibition ED50; for P.C.A. Inhibition ED50: oral
Protocol: For example, the substances have an inhibiting action on the release of endogenic mediators, from mast cells or basophilic leucocytes, which leads to allergic reactions. The doses to be used vary, of course, depending upon the nature of the substance used, upon the mode of administration and upon the condition to be treated. In general, however, satisfactory results are obtained in animal experiments with peroral doses of between 0.05 and 75 mg. per kg. of body weight. Thus, the new compounds have a specific inhibiting action in the PCA test (passive cutaneous anaphylaxis)in rats which is described below.
Description of the test method to determine the inhibition of passive cutaneous anaphylasis (PCA test, see Arch.int.pharmacology 252 (1981) 316-326)
To prepare the IgE-antiovoalbumin serum, used in this test, by the method of Mota (Immunology 7, (1964) 681) and J. Goose (Immunology 16 (1969) 749), male Wistar rats of 200-250 g. body weight were sensitised by subcutaneous injection of 1 mg. of ovoalbumin and 1 ml. of Bordetella pertussis suspension ("Vaxicoq" Merieux 3×10^10 organisms/ml). After 14 days, the animals are exsanguinated and the blood is centrifuged. The antiserum thus obtained is stored at […].
Non-sensitised rats were injected with in each case 0.1 ml. of antiserum into the skin at in each case four different sites on their shaven backs. After 72 hours, a solution of the test compound, or, for comparison, only the solvent, is administered orally, and 10 minutes later 5 mg. of ovoalbumin and 5 mg. of blue dye (Evans blue) in 0.9% strength sodium chloride solution are administered intraperitoneally. After 30 minutes, the animals are sacrificed and the diameters of the blue spots formed at the sites injected with the antiserum are measured. The inhibiting effect of the test substance is determined from the size of the blue spots which occur. […]

SMILES	ED50 [mg/kg]	P.C.A. Inhibition ED50 [mg/kg]
COc1ccccc1N1CCN(CCCCn2c(=O)c3ccc(Cl)cc3n2-c2ccccc2)CC1 [Example 26]	22	
COc1ccc2c(c1)c(=O)n(CCCCN1CCN(c3cc(C)ccn3)CC1)n2-c1ccccc1 [Example 28]	5.7	
COc1ccc2c(c1)c(=O)n(CCCCN1CCN(c3ccccc3OC)CC1)n2-c1ccccc1 [Example 29]	14	
Cc1ccnc(N2CCN(CCCn3c(=O)c4ccccc4n3-c3ccccc3)CC2)c1 [Example 21]	19.2	
O=c1c2ccccc2n(-c2ccccc2)n1CCCN1CCN(c2ccccn2)CC1 [Example 19]	11.5	
O=c1c2ccccc2n(-c2ccccc2)n1CCCCN1CCN(c2ccccn2)CC1 [Example 18]	25	
O=c1c2ccccc2n(-c2ccccc2)n1CCCCN1CCN(c2ccc(F)cc2)CC1 [Example 17]	17.9	
Cc1ccnc(N2CCN(CCCCn3c(=O)c4ccccc4n3-c3cccc(C(F)(F)F)c3)CC2)c1 [Example 32]	6.6	
O=c1c2ccccc2n(-c2ccccc2)n1CCCCN1CCN(c2ccccc2)CC1 [Example 12]	22	
O=c1c2ccccc2n(-c2ccccc2)n1CCCN1CCN(c2ccc(F)cc2)CC1 [Example 15]	10.6	
Cc1ccnc(N2CCN(CCCCn3c(=O)c4ccccc4n3-c3ccccc3)CC2)c1 [Example 20]		7.5
Cc1ccnc(N2CCN(CCCCn3c(=O)c4ccccc4n3-c3ccccc3)CC2)c1 [Example 49]		15.5
